Results taken from patent publication US10470986B2, “Resorcinol compounds for dermatological use” (Conopco, Inc., priority 2013, dated 2019).

What was measured:
[1] = test system: mushroom tyrosinase (Sigma T3824); test: Mushroom Tyrosinase Inhibition Assay; format: biochemical; details: 10 μM compound, 300 μM L-Tyrosine, 84 units/mL enzyme, pH 6.5, 15 min at room temperature
Protocol: 10 μM compound, 300 μM L-Tyrosine, and 84 units/mL of mushroom tyrosinase (Sigma T3824) were combined into 0.05 M potassium monophosphate buffer at pH=6.5, and incubated for 15 min at room temperature. Absorbance was recorded at 490 nm. % tyrosinase inhibition was calculated as follows: (AbsDMSO−Abscmpd)/AbsDMSO×100. The assay was performed for various compounds described herein, as well as for control compounds 4-ethyl resorcinol (4ER), 4-isopropylresorcinol (4IPR), 4-hexylresorcinol (4HR), 4-cyclohexylresorcinol (4CHR), 5-methylresorcinol (5MR), kojic acid (KA), and hydroquinone (HQ), structures of which are shown below.

B16F1 cells = test: B16 Melanin Assay; format: cell-based; details: 1 mM Theophylline stimulated, 72 h, media absorbance 405 nm corrected for viability (Calcein-AM); compound concentration not stated
Protocol: After trypsinization, cells were seeded at 3,000 cells per well in a 96-well plate and allowed to attach overnight. 1 mM Theophylline was used to stimulate melanogenesis, and the compound of interest was added. […] (AbsDMSO/CalceinDMSO-[…]/CalceinDMSO×100. The assay was performed for various compounds described herein, as well as for control compounds 4ER, 4IPR, 4HR, 4CHR, 5MR kojic acid, and hydroquinone. Results are shown in Table 2.

MelanoDerm (Mel-300-B) = test: Mattek 3D Skin Equivalents, MelanoDerm (Mel-300-B) assay; format: cell-based, human; details: every other day, 14 days
Text: Many people at different stages of their life are concerned with the degree of pigmentation of their skin and may wish to reduce the skin darkening, or may wish to lighten or even-tone their natural skin color. The mechanism by which skin pigmentation is formed, melanogenesis, is particularly complex and schematically involves the following main steps: Tyrosine→L-Dopa→Dopaquinone→Dopachrome→Melanins. The first two reactions in this series are catalyzed by the enzyme tyrosinase. The activity of tyrosinase is promoted by the action of a-melanocyte stimulating hormone or UV rays. It is well established that a substance has a depigmenting effect if it acts directly on the vitality of the epidermal melanocytes where melanogenesis normally occurs and/or if it interferes with one of the stages in melanin biosynthesis. Pigmentation disorders can take a variety of forms like hyperpigmentation, hypopigmentation, and uneven pigmentation, and include but are not limited to melasma (mask of pregnancy or chloasma), liver spots (which often develop with age) and leukoderma such as vitiligo. […] The degree of pigmentation disorders of the skin in many cases increases with the age of the individuals. Because of the involvement of tyrosinase in melanogensis, tyrosinase inhibition assays are often used to screen potential skin lightening agents. Some mushroom tyrosinases (such as that from Agaricus bisporus) are homologous with mammalian tyrosinase, and mushroom tyrosinase is often used in inhibition assays due to its ready commercial availability. However, the enzyme inhibition assays may not be as good an indicator of activity as assays which are more similar to the intended clinical or cosmetic use, such as the MatTek Corporation's MelanoDerm™ Skin Model (a system which consists of normal, human-derived epidermal keratinocytes and melanocytes formed into a multilayered model of human epidermis).
MelanoDerm (Mel-300-B) assay was conducted according to the manufacturer's instruction (MatTek Corporation). Every other day, the test articles were administered into the EPI-100-NMM-113 culture medium, and positive control, 25 uL of 2% Kojic acid was applied topically. After 14 days, tissue viability and melanocyte morphology were visually verified and tissue melanin was extracted and quantitated against a standard curve. % melanin was calculated as follows: (MelaninDMSO−Melanincomp)/MelaninDMSO×100. The assay was performed for various compounds described herein, as well as for control compounds 4ER, 4IPR, 4HR, 4CHR, kojic acid, and hydroquinone.

Row | Compound | Mushroom Tyrosinase (% remaining enzyme activity), % TYR Activity [1] | B16 Media Melanin (% Melanin), % Melanin B16 (B16F1 cells) | MatTek Assay (% Melanin), % Melanin 3D EpiDerm (MelanoDerm (Mel-300-B); 10 μM in culture medium) | MatTek Assay (% Melanin), % Melanin 3D EpiDerm (MelanoDerm (Mel-300-B); 30 μM in culture medium) | MatTek Assay (% Melanin), % Melanin 3D EpiDerm (MelanoDerm (Mel-300-B); positive control, 25 uL of 2% Kojic acid applied topically)
1 | Oc1cc(O)c(Cc2ccccc2)c(C(F)(F)F)c1 [4,5BnTFMR, 2-Benzyl-1,5-dihydroxy-3-trifluoromethyl-benzene] | 93% | 82% | – | 75% | –
2 | Oc1cc(O)c(C2CCCCC2)c(F)c1 [4,5CHFR, 4-cyclohexyl-5-fluorobenzene-1,3-diol] | 1% | 51% | 87% | 81% | –
3 | Cc1cc(O)cc(O)c1C1CCCCC1 [4,5CHMR, 4-cyclohexyl-5-methylbenzene-1,3-diol] | 22% | 58% | 66% | 44% | –
4 | Oc1cc(O)c(C2CCCCC2)c(C(F)(F)F)c1 [4,5CHTFMR] | 100% | 65% | 89% | – | –
5 | Oc1cc(O)c(C2CCCCC2)c(F)c1 [4,5EFR, 4-cyclohexyl-5-fluorobenzene-1,3-diol] | 3% | 87% | – | – | –
6 | CCc1c(O)cc(O)cc1C(F)(F)F [4,5ETFMR, 2-Ethyl-1,5-dihydroxy-3-trifluoromethyl-benzene] | – | 68% | 81% | 66% | –
7 | Cc1cc(O)cc(O)c1C(C)C [4,5IPMR, 4-isopropyl-5-methylbenzene-1,3-diol] | – | 71% | 102% | 72% | –
8 | Cc1cc(O)cc(O)c1C(C)c1ccccc1 (centres unmarked) [4,5PEMR, 4-(1-phenylethyl)-5-methylbenzene-1,3-diol] | – | 87% | 98% | 62% | –
9 | Cc1cc(O)cc(O)c1CC(F)(F)F [4,5TFEMR, 4-(2,2,2-trifluoroethyl)-5-methylbenzene-1,3-diol] | – | 90% | 81% | 72% | –
10 | CCc1ccc(O)cc1O [Compound 4ER, 4-ethyl resorcinol, reference compound] | 2% | 48% | 84% | 61% | –
11 | CCCCCCc1ccc(O)cc1O [Compound 4HR, 4-hexylresorcinol, reference compound] | 1% | 71% | 93% | 72% | –
12 | CC(C)c1ccc(O)cc1O [Compound 4IPR, 4-isopropylresorcinol, reference compound] | 1% | 77% | 71% | 46% | –
13 | Oc1ccc(O)cc1 [Hydroquinone, hydroquinone, reference compound] | 100% | 100% | 94% | 92% | –
14 | O=c1cc(CO)occ1O [Kojic Acid, kojic acid, reference compound] | 84% | 100% | 100% | 100% | 75%

Second part, led by results:

Row | Mushroom Tyrosinase (% remaining enzyme activity), % TYR Activity [1] | Compound | B16 Media Melanin (% Melanin), % Melanin B16 (B16F1 cells) | MatTek Assay (% Melanin), % Melanin 3D EpiDerm (MelanoDerm (Mel-300-B); 10 μM in culture medium) | MatTek Assay (% Melanin), % Melanin 3D EpiDerm (MelanoDerm (Mel-300-B); 30 μM in culture medium) | MatTek Assay (% Melanin), % Melanin 3D EpiDerm (MelanoDerm (Mel-300-B); positive control, 25 uL of 2% Kojic acid applied topically)
15 | 97% | Cc1cc(O)cc(O)c1Cc1ccccc1 [4,5BnMR, 4-benzyl-5-methylbenzene-1,3-diol] | 86% | 82% | 61% | –
16 | 71% | Cc1cc(O)cc(O)c1C1CCCC1 [4,5CPMR, 4-cyclopentyl-5-methylbenzene-1,3-diol] | 61% | 65% | 55% | –
17 | 30% | Cc1cc(O)cc(O)c1C1CC1 [4,5CPrMR, 4-cyclopropyl-5-methylbenzene-1,3-diol] | 62% | 99% | 82% | –
18 | 93% | CCc1c(C)cc(O)cc1O [4,5EMR, 4-ethyl-5-methylbenzene-1,3-diol] | 69% | 102% | 79% | –
19 | 10% | CCCCCCc1c(C)cc(O)cc1O [4,5HMR, 4-hexyl-5-methylbenzene-1,3-diol] | 78% | 77% | 68% | –
20 | 32% | Cc1cc(O)cc(O)c1CC1CCCC1 [4,5MCPMR, 4-cyclopentylmethyl-5-methylbenzene-1,3-diol] | 90% | 94% | 72% | –
21 | 100% | CCC(C)c1c(C)cc(O)cc1O (centres unmarked) [4,5sBMR, 4-sec-butyl-5-methylbenzene-1,3-diol] | 76% | 75% | 67% | –
22 | 0% | Oc1ccc(C2CCCCC2)c(O)c1 [Compound 4CHR, 4-cyclohexylresorcinol, reference compound] | 63% | 65% | 36% | –
23 | 100% | Cc1cc(O)cc(O)c1 [Compound 5MR, 5-methylresorcinol, reference compound] | 100% | – | – | –
